Several values for one entry are separate records, joined by “and”; a condition that tells them apart may be missing. Equal values may be shown once.
Assays:
hGLP-1R [1] = molecular target: T1, hGLP-1R (Homo sapiens, UniProt P43220); assay: Ligand-induced cAMP production (CAMYEL BRET sensor) in hGLP-1R+ HEK293T cells; type: cell-based; details: HEK293 cells transfected with human GLP-1R; dose response, Fig. 1b; in words
T1 construct: host or cells: HEK293T, transient transfection
Procedure: (§1) HEK293T cells (700,000 per well) were seeded in six-well plates and incubated to 70% confluency in DMEM (10% FBS, 1% Pen/Strep). Twenty-four hours following seeding, transient transfections were performed using Lipofectamine 2000 (catalogue no. 11668019, Invitrogen) according to the manufacturer’s protocol without including additional transformation carrier DNA.
(§2) Twenty-four hours following transfection, HEK293T cells or MIN6 cells were washed with PBS and resuspended in FluoroBrite phenol red-free complete media (catalogue no. A1896701, Life Technologies) containing 5% FBS and 2 mM of L-glutamine (catalogue no. 25030081, Life Technologies). 100,000 cells per well were plated into poly-D-lysine-coated (catalogue no. P6403, Sigma-Aldrich) 96-well white polystyrene LumiNunc plates (catalogue no. 10072151, Thermo Fisher Scientific). After 24 h, the media was replaced with PBS (catalogue no. 10010056, Gibco) containing 10 μM of coelenterazine-h (catalogue no. S2011, Promega) or 1:500 dilution of NanoGlo (catalogue no. N1110, Promega). BRET measurements were taken every 30 s–2 min using a PHERAstar FS multi-mode microplate reader. […] The resulting ligand-specific ratiometric BRET signals were normalized to vehicle producing the ‘ligand-induced BRET ratio’[37], followed by an additional normalization step to well-specific baseline readings.

lean C57BL/6J mice = assay: 14-day treatment of lean mice: body weight, plasma cholesterol, triglycerides, AST, ALT, heart weight (Fig. 2n–s); type: in vivo, mouse; set-up: Cholesterol / TAG: unit not given here
Procedure: Glp1r^−/− mice were kindly provided by D. Drucker (University of Toronto, Canada). All wildtype and knockout mice used in our studies were in-house bred on a C57BL/6J background. Mice were double-housed and kept in a constant environment with the ambient temperature set to 22 ± 2 °C with constant humidity (45–65%) and a 12 h/12 h light/dark cycle with lights off from 06:00 until 18:00. For studies in DIO mice, male C57BL/6J mice were fed with a high-fat diet comprising 58% kilocalories from fat (D12331, Research Diets). db/db mice were fed with a normal chow diet (T1314, Altromin GmbH) throughout the study. At the beginning of each experiment, mice were equally distributed into experimental groups according to their body weight and body composition. All animal studies were approved by the State of Bavaria, Germany, or the Insitutional Animal Care and Use Committee of the University of Cincinnati, OH, USA and conducted on the basis of the underlying animal welfare law of the respective countries. Compounds were dissolved in PBS and were s.c. administered with a volume of 5 μl g^−1 body weight in the indicated doses between 15:00 and 16:00.

[2] = test system: Fabp4, Plin2, Arntl, Sema3c; assay: PPAR target gene expression in liver (Fabp4, Plin2) and skeletal muscle (Arntl, Sema3c) of DIO mice (Fig. 2j–m); type: in vivo, mouse
Procedure: For assessment of acute drug effects, animals were treated with the respective compounds 4 h before tissue harvesting. Dissected tissues were frozen immediately on dry ice, and RNA was isolated using RNeasy Mini Kits (Qiagen). mRNA levels were determined using TaqMan probes for fatty acid binding protein 4 (Fabp4, Mm00445878_m1), perilipin-2 (Plin2, Mm00475794_m1), aryl hydrocarbon receptor nuclear translocator-like protein 1 (Arntl, Mm00500223_m), semaphorin 3 C (Sema3c, Mm00443121_m1) and hypoxanthine phosphoribosyltransferase 1 (Hprt, Mm03024075_m1) in custom-made low density array cards (Thermo Fisher) or in single assays on a QuantStudio 7 Real-Time PCR system. Target gene expression was normalized to HPRT and fold change was calculated relative to vehicle-treated controls.

hGLP-1R [3] = assay: Ligand-induced cAMP production (BRET) in mouse MIN6 β-cells; type: cell-based, human; details: Fig. 1e, in words
Procedure: as §1, §2

DIO mice = assay: In vivo glucose-stimulated insulin secretion in DIO mice (Fig. 2i); set-up: species or system mouse; details: Figure 2i, individual mice

T1 sequence (P43220 24-463): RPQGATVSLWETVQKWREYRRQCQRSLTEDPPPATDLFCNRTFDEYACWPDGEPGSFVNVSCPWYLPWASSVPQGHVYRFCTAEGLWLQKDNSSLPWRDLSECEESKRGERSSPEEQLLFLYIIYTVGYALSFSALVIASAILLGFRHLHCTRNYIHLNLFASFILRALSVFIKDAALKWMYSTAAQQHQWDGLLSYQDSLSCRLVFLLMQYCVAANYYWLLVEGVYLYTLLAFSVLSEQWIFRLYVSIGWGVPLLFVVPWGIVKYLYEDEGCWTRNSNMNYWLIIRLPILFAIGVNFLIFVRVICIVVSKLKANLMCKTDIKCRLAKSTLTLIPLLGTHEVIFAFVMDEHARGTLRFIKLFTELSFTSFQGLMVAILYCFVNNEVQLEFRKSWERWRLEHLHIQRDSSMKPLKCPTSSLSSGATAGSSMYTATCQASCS

CCO[C@@H](Cc1ccc(OCCc2ccc(OS(C)(=O)=O)cc2)cc1)C(=O)O [tesaglitazar, (S)-2-ethoxy-3-(4-(4-((methylsulfonyl)oxy)phenethoxy)phenyl) propanoic acid]
cAMP production (hGLP-1R [1]): had no effect | Heart weight/Tibia (lean C57BL/6J mice; 14-day treatment, individual animals (Fig. 2s)): 88.25 and 101.20 and 133.32 and 102.79 and 98.68 and 111.28 and 98.00 and 103.11 | plasma cholesterol levels (lean C57BL/6J mice; 14 days, 50 nmol kg−1 per day, Fig. 2o, in words): reduced plasma cholesterol levels | TAG (lean C57BL/6J mice; plasma triglycerides, 14-day treatment, individual animals (Fig. 2p)): 28.51 and 67.33 and 61.82 and 37.82 and 28.64 and 34.88 and 35.62 and 62.31 | Cholesterol (lean C57BL/6J mice; plasma, 14-day treatment, individual animals (Fig. 2o)): 68.85 and 109.93 and 69.31 and 90.92 and 65.38 and 84.58 and 89.99 and 80.51 | ALT (lean C57BL/6J mice; plasma, 14-day treatment, individual animals (Fig. 2q), in U/L (unit assumed)): 7.51 and 24.40 and 11.85 and 4.07 and 8.93 and 10.70 and 5.04 and 14.23 | AST (lean C57BL/6J mice; plasma, 14-day treatment, individual animals (Fig. 2r), in U/L (unit assumed)): 11.14 and 10.87 and 31.82 and 15.56 and 14.94 and 16.00 and 16.09 and 19.09 | expression of known PPAR target genes in liver (Fabp4, Plin2) and skeletal muscle (Arntl, Sema3c) ([2]; 30-week-old male DIO mice, 3 days, 50 nmol kg−1 per day, Fig. 2j–m, in words): induced expression of known PPAR target genes | Fabp4 ([2]; DIO mice, Figure 2j, gene expression in liver, individual mice): 8.80 and 6.98 and 3.76 and 4.88 and 3.64 and 11.43 and 6.16 and 1.27 | Plin2 ([2]; DIO mice, Figure 2k, gene expression in liver, individual mice): 1.24 and 1.51 and 1.57 and 2.00 and 1.99 and 2.32 and 2.01 and 1.45 | Arntl ([2]; DIO mice, Figure 2l, gene expression in skeletal muscle, individual mice, sheet notes an outlier based on grubbs test): 1.55 and 1.75 and 2.01 and 1.16 and 1.39 and 1.34 and 1.60 and 1.28 | Sema3c ([2]; DIO mice, Figure 2m, gene expression in skeletal muscle, individual mice, sheet notes an outlier based on grubbs test): 1.70 and 1.69 and 1.38 and 1.05 and 1.02 and 1.72 and 1.95 and 2.14 | cAMP production (hGLP-1R [3]): had no effect | GSIS (DIO mice): 0.684 and 1.33 and 1.611 and 0.796 and 0.457 and 0.687 and 1.335 and 1.19

Reference: article PMC9398908, “GLP-1-mediated delivery of tesaglitazar improves obesity and glucose metabolism in male mice” (Nature Metabolism, 2022)
